Data taken from patent publication US4237307A, “15-Deoxy-16-hydroxy-16-methyl-Δ19-prostaglandins of the E and F series” (American Cyanamid Company, priority 1979, dated 1980).

What was measured:
Assay type in all cases: in vivo, Guinea-Pigs
[1] = tested on: bronchospasms elicited by intravenous injections of acetylcholine; experiment: Konzett procedure: bronchodilator activity against acetylcholine-induced bronchospasm, i.v.; settings: Cavia porcellus; guinea pig; spasmogen acetylcholine i.v.; three logarithmic cumulative intravenous doses
Protocol: (§1) The bronchodilator activity for representative compounds of this invention was determined in Guinea-Pigs against bronchospasms elicited by intravenous injections of serotonin, histamine, and acetylcholine, by the Konzett procedure the details of which are those discussed by J. Lulling, P Lievens, F. El Sayed and J. Prignot, Arzeimittel-Forschung 18, 995 (1968).
(§2) In the table which follows, bronchodilator activity for representative compounds of the invention against spasmogenic agents serotonin, histamine, and acetylcholine is expressed as an ED50 determined from the results obtained with three logarithmic cumulative intravenous doses.

[2] = tested on: bronchospasms elicited by intravenous injections of histamine; experiment: Konzett procedure: bronchodilator activity against histamine-induced bronchospasm, i.v.; settings: Cavia porcellus; guinea pig; spasmogen histamine i.v.; three logarithmic cumulative intravenous doses
Protocol: as §1, §2

[3] = tested on: bronchospasms elicited by intravenous injections of serotonin; experiment: Konzett procedure: bronchodilator activity against serotonin-induced bronchospasm, i.v.; settings: Cavia porcellus; guinea pig; spasmogen serotonin i.v.; three logarithmic cumulative intravenous doses
Protocol: as §1, §2

C=CCCC(C)(O)C/C=C/[C@H]1[C@H](O)CC(=O)[C@@H]1C/C=C\CCCC(=O)O (relative stereo) [dl-11α,16-DIHYDROXY-9-OXO-16-METHYL-5-cis-13-trans-Δ^19 PROSTATRIENOIC ACID]
ED50 [1]: 10.6 µg/kg
ED50 [2]: 6.4 µg/kg
ED50 [3]: 3.8 µg/kg
